In publication PMC8822347, “Sustained Control of Pyruvate Carboxylase by the Essential Second Messenger Cyclic di-AMP in Bacillus subtilis” (mBio, 2022):
One block for each molecule: values may come before it.

What was measured:
[1] = molecular target: T1, PC; pyruvate carboxylase (PycA) (Bacillus subtilis, UniProt Q9KWU4); assay: malate dehydrogenase-coupled NADH oxidation, […] nm; assay type: biochemical
T1 construct: gene pyc; full length (1148 residues), C-terminal 6xHis (pET28a, pGP3458), from E. coli Rosetta(DE3), biotinylated with BirA; tetrameric

[2] = molecular target: DarB (Bacillus subtilis, UniProt O31698); settings: 26 µM c-di-AMP, 2.6 µM DarB, 0.26 µM PC, 25 mM KHCO3, 2.5 mM pyruvate, 0.1 mM acetyl-CoA; c-di-AMP acts on DarB, not on PC
DarB (Bacillus subtilis, UniProt O31698), sequence (O31698 whole entry): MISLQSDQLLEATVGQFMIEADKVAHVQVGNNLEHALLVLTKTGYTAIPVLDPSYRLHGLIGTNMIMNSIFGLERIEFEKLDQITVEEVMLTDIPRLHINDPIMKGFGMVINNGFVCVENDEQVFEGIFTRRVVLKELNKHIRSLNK

[3] = molecular target: DarB (Bacillus subtilis, UniProt O31698, L38F); settings: 20 °C; 10 µM DarB-L38F in cell, 100 µM c-di-AMP in syringe
[4] = substrate: CC(=O)C(=O)O; assay: purified protein; assay type: biochemical, Bacillus subtilis; settings: 0.1 mM acetyl-CoA, 2 mM ATP, 25 mM KHCO3, 5 mM MgCl2, 150 mM KCl, pH 7.8, 25 °C, no DarB
[5] = molecular target: T2, PC-6×His (pyruvate carboxylase), biotinylated (B. subtilis, UniProt Q9KWU4 1-1148, biotin (naturally biotinylated or biotinylated in vitro with BirA)); assay: pull-down; 2 nmol biotinylated PC-6×His or PC^CT+BCCP-6×His on 250 μl StrepTactin matrix with 15 nmol DarB, DarB^L38F or YlxR, overnight at 4°C; washed with dialysis buffer (10 mM Tris pH 7.8, 150 mM KCl, 6 mM β-mercaptoethanol, 5% glycerol); eluted with 7 mM biotin; Western blot, silver stain, mass spectrometry; also with DarB preincubated with c-di-AMP (150 nmol; less DarB bound) and with acetyl-CoA (more DarB …); settings: both partners purified
T2 construct: pyruvate carboxylase (PC), encoded by pycA, Bacillus subtilis 168; wild type; domains BC, CT, BCCP; also called His-PC; PycA; source: E. coli Rosetta(DE3) (pGP3458), purified (Ni-NTA, StrepTactin); biotinylated in vitro with purified BirA; not shown: 6×His, C-terminal, kept
T2 sequence (looked up): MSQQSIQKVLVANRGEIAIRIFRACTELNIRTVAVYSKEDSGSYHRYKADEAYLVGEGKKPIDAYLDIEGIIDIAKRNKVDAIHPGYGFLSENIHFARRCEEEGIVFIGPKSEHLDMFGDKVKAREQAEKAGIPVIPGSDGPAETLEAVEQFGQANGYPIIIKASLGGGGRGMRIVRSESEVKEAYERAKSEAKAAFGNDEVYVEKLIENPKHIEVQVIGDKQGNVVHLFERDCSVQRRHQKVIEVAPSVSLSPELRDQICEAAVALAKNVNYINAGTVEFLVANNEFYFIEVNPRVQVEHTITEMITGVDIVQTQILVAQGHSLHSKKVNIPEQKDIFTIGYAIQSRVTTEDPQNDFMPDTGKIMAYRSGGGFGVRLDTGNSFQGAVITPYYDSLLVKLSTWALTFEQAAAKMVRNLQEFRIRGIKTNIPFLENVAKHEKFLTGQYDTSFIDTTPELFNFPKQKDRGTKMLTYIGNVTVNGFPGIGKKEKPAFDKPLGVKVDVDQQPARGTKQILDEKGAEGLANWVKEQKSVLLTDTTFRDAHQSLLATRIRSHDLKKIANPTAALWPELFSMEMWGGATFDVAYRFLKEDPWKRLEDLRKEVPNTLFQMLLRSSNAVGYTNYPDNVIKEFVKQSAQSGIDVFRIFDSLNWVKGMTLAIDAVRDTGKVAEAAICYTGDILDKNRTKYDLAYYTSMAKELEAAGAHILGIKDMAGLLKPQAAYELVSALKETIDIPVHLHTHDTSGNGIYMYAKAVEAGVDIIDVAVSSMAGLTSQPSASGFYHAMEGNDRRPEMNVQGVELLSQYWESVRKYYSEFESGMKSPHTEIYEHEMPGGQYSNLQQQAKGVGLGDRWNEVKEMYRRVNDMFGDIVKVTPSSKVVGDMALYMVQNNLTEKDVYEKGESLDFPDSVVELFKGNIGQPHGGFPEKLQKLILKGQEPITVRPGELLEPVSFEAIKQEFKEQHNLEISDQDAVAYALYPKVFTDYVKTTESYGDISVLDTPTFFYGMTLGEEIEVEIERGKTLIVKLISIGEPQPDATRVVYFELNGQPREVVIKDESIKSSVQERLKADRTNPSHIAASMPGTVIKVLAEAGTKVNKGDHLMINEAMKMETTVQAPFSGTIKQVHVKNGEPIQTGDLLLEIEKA

Molecule: CC(=O)SCCNC(=O)CCNC(=O)[C@H](O)C(C)(C)COP(=O)(O)OP(=O)(O)OC[C@H]1O[C@@H](n2cnc3c(N)ncnc32)[C@H](O)[C@@H]1OP(=O)(O)O [acetyl-CoA]
- malate dehydrogenase-coupled NADH oxidation, 340 nm ([1]; allosteric activator, 25 mM KHCO3, 2.5 mM pyruvate, pH 7.8, 25 °C, various acetyl-CoA concentrations): the activity of PC was strongly enhanced in the presence of acetyl-CoA

Molecule: N[C@@H](CC(=O)O)C(=O)O [aspartate]
- malate dehydrogenase-coupled NADH oxidation, 340 nm ([1]; allosteric inhibitor, 16 mM aspartate with 0.1 mM acetyl-CoA, 2.5 mM pyruvate, DarB or BSA present): DarB was no longer able to activate PC in the presence of aspartate

- activation by DarB inhibited to [2]: 16%
Molecule: Nc1ncnc2c1ncn2[C@@H]1O[C@@H]2COP(=O)(O)O[C@H]3[C@@H](O)[C@H](n4cnc5c(N)ncnc54)O[C@@H]3COP(=O)(O)O[C@H]2[C@H]1O [c-di-AMP]
- KD [3]: the mutant protein binds c-di-AMP with a similar affinity as the wild-type protein

B1: PC; pyruvate carboxylase (PycA) (Bacillus subtilis subsp. subtilis str. 168) (protein)
chain: T2 sequence (looked up)
notes: full length (1148 residues), C-terminal 6xHis (pET28a, pGP3458), from E. coli Rosetta(DE3), biotinylated with BirA; tetrameric
- Km [4]: 230 µM

- binding result [5]: binds
B2: DarB^L38F, purified, SUMO tag removed (natural protein, B. subtilis)
chain: MISLQSDQLLEATVGQFMIEADKVAHVQVGNNLEHALFVLTKTGYTAIPVLDPSYRLHGLIGTNMIMNSIFGLERIEFEKLDQITVEEVMLTDIPRLHINDPIMKGFGMVINNGFVCVENDEQVFEGIFTRRVVLKELNKHIRSLNK
notes: DarB, Bacillus subtilis 168, with Leu38 changed to Phe; also called DarB mutant L38F; the mutant protein; source: E. coli Rosetta(DE3) (pGP3481), purified (Ni-NTA; SUMO tag removed with SUMO protease); not shown: 6×His, N-terminal, cleaved; SUMO, N-terminal, cleaved
